# Data from patent publication US12310975B2, “Modulators of BCL6 proteolysis and associated methods of use” (Arvinas Operations, Inc., priority 2019, dated 2025).
# Biological target: BCL6 (Homo sapiens (Human), UniProt P41182)
# Experiment: Immunofluorescence high content imaging of BCL6 degradation in T47D cells
# Format: cell-based
# Details: not given
# In short: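 Read-out is BCL6 immunofluorescence quantified by high-content imaging (10×, 4 fields per well) of T47D breast cancer cells. Cells were exposed for 3 days to degrader in an 11-point, 3-fold serial dilution reaching a final top concentration of 0.1 or 1 μM.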
row,IC50 [nM],SMILES
1,< 10,"CCn1c(=O)c(OCC(=O)NC)cc2cc(Nc3cc(N4CCN(C(C)(C)C5CCN(c6ccc7c(c6)C(=O)N(C6CCC(=O)NC6=O)C7=O)CC5)CC4)ncc3Cl)ccc21 (stereo not drawn) [compound 300, 2-{[6-({5-chloro-2-[4-(2-{1-[2-(2,6-dioxopiperidin-3-yl)-1,3-dioxo-2,3-dihydro-1H-isoindol-5-yl]piperidin-4-yl}propan-2-yl)piperazin-1-yl]pyridin-4-yl}amino)-1-ethyl-2-oxo-1,2-dihydroquinolin-3-yl]oxy}-N-methylacetamide]"
2,≥ 100,"CC(=O)COc1cc2cc(Nc3nc(N4CCC(N5CCC(Oc6ccc7c(c6)C(=O)N(C6CCC(=O)NC6=O)C7=O)C5)CC4)ncc3Cl)ccc2n(C)c1=O (stereo not drawn) [compound 177, 5-((1-(1-(5-chloro-4-((1-methyl-2-oxo-3-(2-oxopropoxy)-1,2-dihydroquinolin-6-yl)amino)pyrimidin-2-yl)piperidin-4-yl)pyrrolidin-3-yl)oxy)-2-(2,6-dioxopiperidin-3-yl)isoindoline-1,3-dione]"
3,< 10,"CCn1c(=O)c(OCC(=O)NC)cc2cc(Nc3nc(N4CCC(OC5CCN(c6cccc7c6C(=O)N(C6CCC(=O)NC6=O)C7=O)CC5)CC4)ncc3Cl)ccc21 (stereo not drawn) [compound 292, 2-{[6-({5-chloro-2-[4-({1-[2-(2,6-dioxopiperidin-3-yl)-1,3-dioxo-2,3-dihydro-1H-isoindol-4-yl]piperidin-4-yl}oxy)piperidin-1-yl]pyrimidin-4-yl}amino)-1-ethyl-2-oxo-1,2-dihydroquinolin-3-yl]oxy}-N-methylacetamide]"

# Same assay, conditions: T47D
row,Dmax [%],SMILES
1,50 to 70,"CCn1c(=O)c(OCC(=O)NC)cc2cc(Nc3cc(N4CCN(C(C)(C)C5CCN(c6ccc7c(c6)C(=O)N(C6CCC(=O)NC6=O)C7=O)CC5)CC4)ncc3Cl)ccc21 (stereo not drawn) [compound 300, 2-{[6-({5-chloro-2-[4-(2-{1-[2-(2,6-dioxopiperidin-3-yl)-1,3-dioxo-2,3-dihydro-1H-isoindol-5-yl]piperidin-4-yl}propan-2-yl)piperazin-1-yl]pyridin-4-yl}amino)-1-ethyl-2-oxo-1,2-dihydroquinolin-3-yl]oxy}-N-methylacetamide]"
2,< 50,"CC(=O)COc1cc2cc(Nc3nc(N4CCC(N5CCC(Oc6ccc7c(c6)C(=O)N(C6CCC(=O)NC6=O)C7=O)C5)CC4)ncc3Cl)ccc2n(C)c1=O (stereo not drawn) [compound 177, 5-((1-(1-(5-chloro-4-((1-methyl-2-oxo-3-(2-oxopropoxy)-1,2-dihydroquinolin-6-yl)amino)pyrimidin-2-yl)piperidin-4-yl)pyrrolidin-3-yl)oxy)-2-(2,6-dioxopiperidin-3-yl)isoindoline-1,3-dione]"
3,50 to 70,"CCn1c(=O)c(OCC(=O)NC)cc2cc(Nc3nc(N4CCC(OC5CCN(c6cccc7c6C(=O)N(C6CCC(=O)NC6=O)C7=O)CC5)CC4)ncc3Cl)ccc21 (stereo not drawn) [compound 292, 2-{[6-({5-chloro-2-[4-({1-[2-(2,6-dioxopiperidin-3-yl)-1,3-dioxo-2,3-dihydro-1H-isoindol-4-yl]piperidin-4-yl}oxy)piperidin-1-yl]pyrimidin-4-yl}amino)-1-ethyl-2-oxo-1,2-dihydroquinolin-3-yl]oxy}-N-methylacetamide]"

# Same assay, conditions: T47D cells
Dmax [%],IC50 [nM],SMILES
< 50,10 to 50,"CNC(=O)COc1cc2cc(Nc3nc(N4CCN(CC5CCN(c6cc(OC)c(C(=O)NC7CCC(=O)NC7=O)c(OC)c6)CC5)CC4)ncc3Cl)ccc2n(C)c1=O (stereo not drawn) [compound 368, 4-[4-({4-[5-chloro-4-({1-methyl-3-[(methylcarbamoyl)methoxy]-2-oxo-1,2-dihydroquinolin-6-yl}amino)pyrimidin-2-yl]piperazin-1-yl}methyl)piperidin-1-yl]-N-(2,6-dioxopiperidin-3-yl)-2,6-dimethoxybenzamide]"
,≥ 100,"CCCOc1cc(N2CCC(CN3CCN(c4ncc(Cl)c(Nc5ccc6c(c5)cc(OCC(=O)NC)c(=O)n6C)n4)CC3)CC2)ccc1C(=O)NC1CCC(=O)NC1=O (stereo not drawn) [compound 345, 4-[4-({4-[5-chloro-4-({1-methyl-3-[(methylcarbamoyl)methoxy]-2-oxo-1,2-dihydroquinolin-6-yl}amino)pyrimidin-2-yl]piperazin-1-yl}methyl)piperidin-1-yl]-N-(2,6-dioxopiperidin-3-yl)-2-propoxybenzamide]"
≥ 70,< 10,"CNC(=O)COc1cc2cc(Nc3nc(N4CCN(CC5CCN(c6cccc7c6CN(C6CCC(=O)NC6=O)C7=O)CC5)CC4)ncc3Cl)ccc2n(C(C)C)c1=O (stereo not drawn) [compound 423, 2-{[6-({5-chloro-2-[4-({1-[2-(2,6-dioxopiperidin-3-yl)-1-oxo-2,3-dihydro-1H-isoindol-4-yl]piperidin-4-yl}methyl)piperazin-1-yl]pyrimidin-4-yl}amino)-2-oxo-1-(propan-2-yl)-1,2-dihydroquinolin-3-yl]oxy}-N-methylacetamide]"
50 to 70,< 10,"CCn1c(=O)c(OCC(=O)NC)cc2cc(Nc3nc(N4CCN(CC5CCN(c6ccc(C(=O)NC7CCC(=O)NC7=O)c(OC)c6)CC5)CC4)ncc3Cl)ccc21 (stereo not drawn) [compound 375, 4-[4-({4-[5-chloro-4-({1-ethyl-3-[(methylcarbamoyl)methoxy]-2-oxo-1,2-dihydroquinolin-6-yl}amino)pyrimidin-2-yl]piperazin-1-yl}methyl)piperidin-1-yl]-N-(2,6-dioxopiperidin-3-yl)-2-methoxybenzamide]"
< 50,< 10,"CNC(=O)COc1cc2cc(Nc3nc(N4CCN(CC5CCN(C(=O)c6ccc(OC)c(N7CCC(=O)NC7=O)c6)CC5)CC4)ncc3Cl)ccc2n(C(C)C)c1=O [compound 401, 2-{[6-({5-chloro-2-[4-({1-[3-(2,4-dioxo-1,3-diazinan-1-yl)-4-methoxybenzoyl]piperidin-4-yl}methyl)piperazin-1-yl]pyrimidin-4-yl}amino)-2-oxo-1-(propan-2-yl)-1,2-dihydroquinolin-3-yl]oxy}-N-methylacetamide]"
50 to 70,< 10,"CCn1c(=O)c(OCC(=O)NC)cc2cc(Nc3nc(N4CCC(COC5CCN(c6cccc7c6C(=O)N(C6CCC(=O)NC6=O)C7=O)CC5)CC4)ncc3Cl)ccc21 (stereo not drawn) [compound 332, 2-({6-[(5-chloro-2-{4-[({1-[2-(2,6-dioxopiperidin-3-yl)-1,3-dioxo-2,3-dihydro-1H-isoindol-4-yl]piperidin-4-yl}oxy)methyl]piperidin-1-yl}pyrimidin-4-yl)amino]-1-ethyl-2-oxo-1,2-dihydroquinolin-3-yl}oxy)-N-methylacetamide]"
50 to 70,50 to 100,"CCCn1c(=O)c(OCC(=O)NC)cc2cc(Nc3nc(N4CCC[C@H](COc5cccc6c5C(=O)N(C5CCC(=O)NC5=O)C6=O)C4)ncc3Cl)ccc21 (stereo partly drawn) [compound 318, 2-{[6-({5-chloro-2-[(3S)-3-({[2-(2,6-dioxopiperidin-3-yl)-1,3-dioxo-2,3-dihydro-1H-isoindol-4-yl]oxy}methyl)piperidin-1-yl]pyrimidin-4-yl}amino)-2-oxo-1-propyl-1,2-dihydroquinolin-3-yl]oxy}-N-methylacetamide]"
≥ 70,,"CNC(=O)COc1cc2cc(Nc3nc(N4CC5(CCN(CC6CCN(c7cccc8c7C(=O)N(C7CCC(=O)NC7=O)C8=O)CC6)CC5)C4)ncc3Cl)ccc2n(C(C)C)c1=O (stereo not drawn) [compound 426, 2-{[6-({5-chloro-2-[7-({1-[2-(2,6-dioxopiperidin-3-yl)-1,3-dioxo-2,3-dihydro-1H-isoindol-4-yl]piperidin-4-yl}methyl)-2,7-diazaspiro[3.5]nonan-2-yl]pyrimidin-4-yl}amino)-2-oxo-1-(propan-2-yl)-1,2-dihydroquinolin-3-yl]oxy}-N-methylacetamide]"
50 to 70,< 10,"CNC(=O)COc1cc2cc(Nc3nc(N4C[C@@H](C)N(CC5CCN(c6cccc7c6C(=O)N(C6CCC(=O)NC6=O)C7=O)CC5)[C@@H](C)C4)ncc3Cl)ccc2n(C(C)C)c1=O (stereo partly drawn) [compound 387, 2-{[6-({5-chloro-2-[(3R,5S)-4-({1-[2-(2,6-dioxopiperidin-3-yl)-1,3-dioxo-2,3-dihydro-1H-isoindol-4-yl]piperidin-4-yl}methyl)-3,5-dimethylpiperazin-1-yl]pyrimidin-4-yl}amino)-2-oxo-1-(propan-2-yl)-1,2-dihydroquinolin-3-yl]oxy}-N-methylacetamide]"
50 to 70,< 10,"CNC(=O)COc1cc2cc(Nc3nc(N4CCC[C@H](COc5cccc6c5C(=O)N(C5CCC(=O)NC5=O)C6=O)C4)ncc3Cl)ccc2n(C2CCCCC2)c1=O (stereo partly drawn) [compound 343, 2-{[6-({5-chloro-2-[(3S)-3-({[2-(2,6-dioxopiperidin-3-yl)-1,3-dioxo-2,3-dihydro-1H-isoindol-4-yl]oxy}methyl)piperidin-1-yl]pyrimidin-4-yl}amino)-1-cyclohexyl-2-oxo-1,2-dihydroquinolin-3-yl]oxy}-N-methylacetamide]"

SMILES,Dmax [%],IC50 [nM]
"CNC(=O)COc1cc2cc(Nc3nc(N4CCC(O[C@H]5C[C@H](N6CCC(c7cccc8c7C(=O)N(C7CCC(=O)NC7=O)C8=O)CC6)C5)CC4)ncc3Cl)ccc2n(C(C)C)c1=O (stereo partly drawn) [compound 409, 2-({6-[(5-chloro-2-{4-[(1r,3r)-3-{4-[2-(2,6-dioxopiperidin-3-yl)-1,3-dioxo-2,3-dihydro-1H-isoindol-4-yl]piperidin-1-yl}cyclobutoxy]piperidin-1-yl}pyrimidin-4-yl)amino]-2-oxo-1-(propan-2-yl)-1,2-dihydroquinolin-3-yl}oxy)-N-methylacetamide]",50 to 70,< 10

# Same assay, conditions: class symbols A-D, read-out: EC50 (nM)*
row,DC50 [nM],SMILES
1,10 to 50,"CNC(=O)COc1cc2cc(Nc3nc(N4CCC(c5cn(CCOCCOc6ccc7c(c6)C(=O)N(C6CCC(=O)NC6=O)C7=O)nn5)CC4)ncc3Cl)ccc2n(C)c1=O (stereo not drawn) [compound 107, 2-((6-((5-chloro-2-(4-(1-(2-(2-((2-(2,6-dioxopiperidin-3-yl)-1,3-dioxoisoindolin-5-yl)oxy)ethoxy)ethyl)-1H-1,2,3-triazol-4-yl)piperidin-1-yl)pyrimidin-4-yl)amino)-1-methyl-2-oxo-1,2-dihydroquinolin-3-yl)oxy)-N-methylacetamide]"
2,> 100,"CNC(=O)COc1cc2cc(Nc3nc(N4CCC(OCCCOc5cc(-c6scnc6C)ccc5CNC(=O)[C@@H]5C[C@@H](O)CN5C(=O)C(c5cc(C)no5)C(C)C)CC4)ncc3Cl)ccc2n(C)c1=O (stereo partly drawn) [compound 141, (2S,4R)-N-(2-(3-((1-(5-chloro-4-((1-methyl-3-(2-(methylamino)-2-oxoethoxy)-2-oxo-1,2-dihydroquinolin-6-yl)amino)pyrimidin-2-yl)piperidin-4-yl)oxy)propoxy)-4-(4-methylthiazol-5-yl)benzyl)-4-hydroxy-1-(3-methyl-2-(3-methylisoxazol-5-yl)butanoyl)pyrrolidine-2-carboxamide]"
3,50 to 100,"CNC(=O)COc1cc2cc(Nc3nc(N4CCC(OCCOCCOCCOc5ccc6c(c5)C(=O)N(C5CCC(=O)NC5=O)C6=O)CC4)ncc3Cl)ccc2n(C)c1=O (stereo not drawn) [compound 52, 2-((6-((5-chloro-2-(4-(2-(2-(2-((2-(2,6-dioxopiperidin-3-yl)-1,3-dioxoisoindolin-5-yl)oxy)ethoxy)ethoxy)ethoxy)piperidin-1-yl)pyrimidin-4-yl)amino)-1-methyl-2-oxo-1,2-dihydroquinolin-3-yl)oxy)-N-methylacetamide]"
4,> 100,"CN1C(=O)CCc2cc(Nc3cc(OC4CCN(CCOCCOc5ccc6c(c5)C(=O)N(C5CCC(=O)NC5=O)C6=O)CC4)c([N+](=O)[O-])cc3Cl)ccc21 (stereo not drawn) [compound 73, 5-(2-(2-(4-(4-chloro-5-((1-methyl-2-oxo-1,2,3,4-tetrahydroquinolin-6-yl)amino)-2-nitrophenoxy)piperidin-1-yl)ethoxy)ethoxy)-2-(2,6-dioxopiperidin-3-yl)isoindoline-1,3-dione]"
